In patent US11260066B2, “Inhibiting reduction of lean body mass and inhibiting accumulation of liver fat by administering allulose” (SAMYANG CORPORATION, priority 2017, dated 2022):

Assays:
[1] = parameters: species or system human; settings: in vivo
Protocol: Furthermore, the difference of the average change between the three groups at 12 weeks compared to the base time for the items was analyzed in the laboratory test.

[2] = Body fat and lean body mass measured by DXA, 12-week human application test; assay type: in vivo; settings: for Lean, 12 W, Mean / Fat, Difference (average change at 12 weeks compared to base time) / Lean, Difference (12 W vs baseline): ITT 33; for Fat, 12 W, Mean: ITT 33 overweight/obese adults
Protocol: After conducting a screening test for those who heard the detailed description of the purpose and research method of the present example and agreed in writing as subjects, those who met the selection/exclusion criteria were selected. The specific selection criteria are as follows, and the final selected subjects are 99 men and women who are overweight or obese, and the demographic information of the selected subjects is shown in the following Table 1. The efficacy test was performed by dividing 99 selected test subjects into 3 groups, and by providing three products to the high-dose group (33 people), low-dose group (33 people), and control group (33 people), respectively. The allulose high-dose product was provided to the high-dose test group, and the allulose low-dose product was provided to the low-dose test group, and placebo product was provided to the control group. Ninety nine (99) subjects were randomly assigned to the high-dose group, low-dose group or control group, with including 33 subjects in each test group. In three test groups, the products were mixed in 100 ml of water and were administered orally twice a day. As the daily dose for one test subject, 12 g allulose in the high-dose group, 6 g allulose and 6 g anhydrous glucose in the low-dose group, and 12 g anhydrous glucose in the control group were divided and provided twice a day. It was administered from the day after the random assignment day (0 day), and was taken with drinking water twice at morning and evening with meals for 12 weeks. At the random assignment day (0 day), the efficacy evaluation items and safety evaluation items such as DXA measurement and the like were checked, and the evaluation items were also checked through hospital outpatient visit at 4 weeks, 8 weeks and 12 weeks from the day of beginning administration of test products. In addition, during the human application test, the usual physical activity of subjects was investigated using Korean version of International Physical Activity Questionnaire (IPAQ). During the human application test period, the subjects were trained to maintain the activity amount being similar to normal physical activity. At each hospital outpatient visit, the amount of meal intake was examined by the recording board made by the subjects. The subjects were trained to maintain the amount of meal intake being similar to the usual amount with avoiding overeating condition. At the time of second hospital visit (visit 2) and final hospital visit (visit 5), the body fat ratio and body fat were measured using prodigy DXA of U.S. Lunar Company. For the body fat measured by DXA, after calculating the change of the body fat after 12 weeks compared to the base time, technical statistics (mean, standard deviation, median value, minimum value, maximum value) were obtained. The comparative statistic test for the three groups was performed using ANOVA or Kruscal-Wallis test by testing whether data were normally distributed. When there was a significant difference between the three groups, the multiple comparison was conducted through Tukey-Kramer method. In order to find out whether there was a difference in the mean change in a group, it was analyzed using Paired t-test or Wilcoxon's signed rank test.

[3] = Blood chemical test (Alkaline phosphatase, AST, ALT, γ-GTP), human application test; assay type: in vivo; settings: for ALT(SGPT), Mean / ALT(SGPT), Median / AST(SGOT), Mean / AST(SGOT), Median / Alkaline phosphatase, Mean / Alkaline phosphatase, Median / γ-GTP, Mean / γ-GTP, Median: ITT 33, time point not given; for ALT, change at 12 weeks compared to the base time / Alkaline phosphatase, change at 12 weeks compared to the base time / γ-GTP, change at 12 weeks compared to the base time: increased in control
Source text: After conducting a screening test for those who heard the detailed description of the purpose and research method of the present example and agreed in writing as subjects, those who met the selection/exclusion criteria were selected. The specific selection criteria are as follows, and the final selected subjects are 99 men and women who are overweight or obese, and the demographic information of the selected subjects is shown in the following Table 1. Ninety nine (99) subjects were randomly assigned to the high-dose group, low-dose group or control group, with including 33 subjects in each test group. In three test groups, the products were mixed in 100 ml of water and were administered orally twice a day. As the daily dose for one test subject, 12 g allulose in the high-dose group, 6 g allulose and 6 g anhydrous glucose in the low-dose group, and 12 g anhydrous glucose in the control group were divided and provided twice a day. It was administered from the day after the random assignment day (0 day), and was taken with drinking water twice at morning and evening with meals for 12 weeks. (4) Blood chemical test result The test items performed at screening visit (visit1), visit2 and end visit (visit5) were Alkaline phosphatase, AST, ALT, and γ-GTP. In case of continuous data, for the average change compared to the base time, technical statistics (mean, standard deviation, median value, minimum value, maximum value) were proposed for the average change compared to the base time. The comparative statistic test for the three groups was performed using ANOVA or Kruscal-Wallis test by testing whether data were normally distributed. When there was a significant difference between the three groups, the multiple comparison was conducted through Tukey-Kramer method. In order to find out whether there was a difference in the mean change in a group, it was analyzed using Paired t-test or Wilcoxon's signed rank test. In case of categorical data, technical statistics (frequency, percentage) were proposed, and comparative statistic test was performed between three groups using Chi-square test or Fisher' exact test.

[4] = high-dose group: allulose 12 g/d oral, 12 weeks
[5] = high-dose group: allulose 12 g/d oral
[6] = low-dose group: allulose 6 g/d + anhydrous glucose 6 g/d oral, 12 weeks
[7] = low-dose group: allulose 6 g/d + anhydrous glucose 6 g/d oral
[8] = high-dose group: allulose 12 g/d, statistically significant before/after
[9] = low-dose group: allulose 6 g/d + glucose 6 g/d, statistically significant before/after

With `O=C(CO)C(O)C(O)C(O)CO` (stereo not shown) [allulose] the “normality of the urine test” value [1] was “no clinically significant abnormal subject”, the “lean body mass before and after administration” value ([2]; allulose administration groups, 12 weeks, control reduced by 0.61 kg) was “did not show a difference before and after administration” and the “body fat before and after administration” value ([2]; allulose low-dose group and high-dose group, 12 weeks) was “slightly increased, but there was no statistically significant difference before and after administration”. The “body fat accumulation and muscle mass reduction” value ([2]; conclusion from analysis of body components, 12 weeks) was “inhibited”, the “Lean, 12 W, Mean” value [2, 4] was 40.24 kg and the “Fat, 12 W, Mean” value [2, 4] was 26.31 kg. The “Fat, Difference (average change at 12 weeks compared to base time)” value [2, 5] was 0.25 ± 1.34 kg, the “Lean, Difference (12 W vs baseline)” value [2, 5] was -0.22 ± 1.08 kg and the “Lean, 12 W, Mean” value [2, 6] was 42.26 kg. The “Fat, 12 W, Mean” value [2, 6] was 26.80 kg, the “Fat, Difference (average change at 12 weeks compared to base time)” value [2, 7] was 0.16 ± 0.91 kg and the “Lean, Difference (12 W vs baseline)” value [2, 7] was 0.05 ± 0.89 kg. The “ALT(SGPT), Mean” value [3, 5] was 22.21 U/L, the “ALT(SGPT), Median” value [3, 5] was 16.00 U/L and the “AST(SGOT), Mean” value [3, 5] was 18.76 U/L. For the same molecule, the “AST(SGOT), Median” value [3, 5] was 18.00 U/L, the “Alkaline phosphatase, Mean” value [3, 5] was 183.21 U/L and the “Alkaline phosphatase, Median” value [3, 5] was 169.00 U/L. The “γ-GTP, Mean” value [3, 5] was 18.18 U/L, the “γ-GTP, Median” value [3, 5] was 14.00 U/L and the “ALT, change at 12 weeks compared to the base time” value [3, 8] was “reduced”. The “Alkaline phosphatase, change at 12 weeks compared to the base time” value [3, 8] was “reduced”, the “γ-GTP, change at 12 weeks compared to the base time” value [3, 8] was “reduced” and the “ALT(SGPT), Mean” value [3, 7] was 26.88 U/L. The “ALT(SGPT), Median” value [3, 7] was 19.00 U/L, the “AST(SGOT), Mean” value [3, 7] was 22.64 U/L and the “AST(SGOT), Median” value [3, 7] was 18.00 U/L. The “Alkaline phosphatase, Mean” value [3, 7] was 178.97 U/L, the “Alkaline phosphatase, Median” value [3, 7] was 170.00 U/L and the “γ-GTP, Mean” value [3, 7] was 33.58 U/L. For the same molecule, the “γ-GTP, Median” value [3, 7] was 19.00 U/L, the “ALT, change at 12 weeks compared to the base time” value ([3]; low-dose group: allulose 6 g/d + glucose 6 g/d) was “reduced” and the “Alkaline phosphatase, change at 12 weeks compared to the base time” value [3, 9] was “reduced”. For the same molecule, the “γ-GTP, change at 12 weeks compared to the base time” value [3, 9] was “reduced”.
